Source: patent publication EP0396317B1, “Pharmaceutical composition” (priority 1989, dated 1990)

Test: solubility and pH-dependent separation of the carbenoxolone/chlorhexidine complex
Format: physicochemical

## [H]/N=C(\N/C(=N/[H])NCCCCCCNC(=N)NC(=N)Nc1ccc(Cl)cc1)Nc1ccc(Cl)cc1 [chlorhexidine]
pH 9.0 or more
  behaviour of the complex suspension at high pH: can be separated by filtration
pH less than 3.5 / 3.5 or less
  behaviour of the complex suspension at low pH: will remain in solution
